Experimental data from patent US10604489B2, “Compounds for the treatment of pain” (priority 2018, dated 2020).
Where a name gives a salt, the structure may show the parent alone.

How the values were obtained:
Male Sprague-Dawley rats = test: animal or person; assay type: in vivo, rat; conditions: rat; for minimal effective dose: sc, minimum dose at which maximal reversal of hind paw weight bearing (50±0.5%) was achieved, subcutaneous administration, read-out: MEMD SC CFA
human μ opioid receptor [1] = biological target: T1, human μ opioid receptor (Homo sapiens (Human), UniProt P35372); test: Functional activity ([35S]GTPγS binding); assay type: biochemical; conditions: [35S]GTPγS 0.080 nM, CHO cell membranes, 60 min at 30° C., filtration
Outline: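 Membranes from stably transfected CHO cells (7.5 μg) incubated with 12 test-compound concentrations and 0.080 nM [35S]GTPγS in 50 mM Tris-HCl pH 7.4, 3 mM MgCl2, 0.2 mM EGTA, 3 μM GDP, 100 mM NaCl, 60 min at 30° C. Nonspecific binding defined with 10 μM GTPγS; bound label collected by filtration and scintillation counting.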

μ-receptor = μ-receptor (Homo sapiens (Human), UniProt P35372); test: Receptor binding, competitive displacement of [3H]DAMGO; conditions: 0.25 nM [3H]DAMGO, CHO cell membrane protein, 60 min at 25° C.
Outline: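 Membranes from CHO cells stably expressing cloned human μ-opioid receptor incubated 60 min at 25 °C with 12 compound concentrations and 0.25 nM [3H]DAMGO in 50 mM Tris-HCl pH 7.5; nonspecific binding with 10 μM naloxone. Filtration and scintillation counting; Ki from IC50 by Cheng-Prusoff.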

human μ opioid receptor [2] = biological target: T1, human μ opioid receptor; test: Alternate functional activity ([35S]GTPγS binding) assay, SPA beads; assay type: biochemical; conditions: alternate assay: [35S]GTPγS 0.020 nM, CHO cell membranes with WGA PVT SPA beads
Experimental: The [^35S]GTPγS assay measures the functional properties of a compound by quantifying the level of G-protein activation following agonist binding in studies using stably transfected cells, and is considered to be a measure of the efficacy of a compound. Membranes from CHO (Chinese Hamster Ovary) cells that stably expressed one type of the cloned human opioid receptor human were used in the experiments. The assay buffer consisted of 50 mM Tris-HCl, pH 7.4, 3 mM MgCl2, 0.2 mM EGTA, 5 μM GDP, and 100 mM NaCl. CHO cell membranes stably expressing the human p opioid receptor were pre-incubated with scintillation proximity assay beads from PerkinElmer® (WGA PVT SPA) for 30 minutes, at 8 µg membrane and […] beads in a volume of 0.1 mL per reaction. In a final volume of 0.2 mL, 11 different concentrations of each test compound were incubated with the membrane-SPA bead mixture and a final concentration of 0.020 nM [35S]GTPγS for 1.5 hours with gentle shaking. Reactions were then incubated for 5 hours. Data are the mean EC50 values ±S.E.M. EC50 values (nM) for compounds 12, 16, 19, 20, 149, 151, 152, 157, 160, 161, 164-169, 172, 173, 180-197, and 199-207 are shown in Table 1.

With `COC1(c2ccnc(C(N)=O)c2)C2CCCC1CN(C[C@H]1CCCO1)C2.Cl` (single isomer, unassigned) [Compound 136] the minimal effective dose (Male Sprague-Dawley rats) was 0.3 mg/kg.

Work on `COC1(c2cccc(C(N)=O)c2)C2CCCC1CN(C[C@@H]1CCOC1)C2.Cl` (single isomer, unassigned) [Compound 143] yielded a minimal effective dose (Male Sprague-Dawley rats) of 1 mg/kg.

In the case of `CO[C@@]12CC[C@@]3(C[C@@H]1[C@](C)(O)C(C)(C)C)[C@H]1Cc4ccc(O)c5c4[C@@]3(CCN1CC1CC1)[C@H]2O5` [Buprenorphine, reference compound], the “MEMD SC CFA” value (Male Sprague-Dawley rats; in vivo) is reported as 0.1 mg/kg.

Work on `COC1(c2ccc(C(N)=O)s2)C2CCCC1CN(C)C2.Cl` [Compound 48, 5-((1R,5S,9r)-9-methoxy-3-methyl-3-azabicyclo[3.3.1]nonan-9-yl)thiophene-2-carboxamide hydrochloride] yielded an EC50 (human μ opioid receptor [1]) of 10 to 75 nM, a minimal effective dose (Male Sprague-Dawley rats) of 0.1 mg/kg and a Ki (μ-receptor) of under 1 nM.

Work on `COC1(c2ccnc(C(N)=O)c2)C2CCCC1CN(C1CCOCC1)C2.Cl` [Compound 56, 4-((1R,5S,9r)-9-methoxy-3-(tetrahydro-2H-pyran-4-yl)-3-azabicyclo[3.3.1]nonan-9-yl)picolinamide hydrochloride] yielded an EC50 (human μ opioid receptor [1]) of over 75 nM, a minimal effective dose (Male Sprague-Dawley rats) of 3 mg/kg and a Ki (μ-receptor) of over 5 nM.

For `COC1(c2cccc(C(N)=O)c2)C2CCCC1CN(CCN1CCNC1=O)C2.Cl` [Compound 63, 3-((1R,5S,9r)-9-methoxy-3-(2-(2-oxoimidazolidin-1-yl)ethyl)-3-azabicyclo[3.3.1]nonan-9-yl)benzamide hydrochloride], the EC50 (human μ opioid receptor [1]) was 10 to 75 nM, the minimal effective dose (Male Sprague-Dawley rats) was over 1 mg/kg and the Ki (μ-receptor) was under 1 nM.

Work on `COC1(c2cccc(C(N)=O)c2)C2CCCC1CN(CCN1C(=O)CCC1=O)C2.Cl` [Compound 65, 3-((1R,5S,9r)-3-(2-(2,5-dioxopyrrolidin-1-yl)ethyl)-9-methoxy-3-azabicyclo[3.3.1]nonan-9-yl)benzamide hydrochloride] yielded an EC50 (human μ opioid receptor [1]) of under 10 nM, a minimal effective dose (Male Sprague-Dawley rats) of 0.1 mg/kg and a Ki (μ-receptor) of under 1 nM.

In the case of `COC1(c2ccnc(C(N)=O)c2)C2CCCC1CN(Cc1cnc[nH]1)C2.Cl` [Compound 96, 4-((1R,5S,9r)-3-((1H-imidazol-5-yl)methyl)-9-methoxy-3-azabicyclo[3.3.1]nonan-9-yl)picolinamide hydrochloride], the EC50 (human μ opioid receptor [1]) is reported as 10 to 75 nM, the minimal effective dose (Male Sprague-Dawley rats) is reported as 1 mg/kg and the Ki (μ-receptor) is reported as under 1 nM.

`COC1(c2ccnc(C(N)=O)c2)C2CCCC1CN([C@H]1C[C@@H](OC)C1)C2` (stereo partly drawn) [Compound 139, 4-((1R,5S,9R)-9-methoxy-3-((1r,3R)-3-methoxycyclobutyl)-3-azabicyclo[3.3.1]nonan-9-yl)picolinamide hydrochloride] was tested, and the EC50 (human μ opioid receptor [1]) was 10 to 75 nM and the Ki (μ-receptor) was under 1 nM.

In the case of `COC1(c2ccnc(C(N)=O)c2)C2CCCC1CN(Cc1n[nH]c3ccccc13)C2` [Compound 142, 4-((1R,5S,9r)-3-((1H-indazol-3-yl)methyl)-9-methoxy-3-azabicyclo[3.3.1]nonan-9-yl)picolinamide hydrochloride], the EC50 (human μ opioid receptor [1]) is reported as under 10 nM and the Ki (μ-receptor) is reported as under 1 nM.

Compound `COC1(c2cccc(C(N)=O)c2)C2CCCC1CN(CCS(C)(=O)=O)C2` [Compound 150, 3-((1R,5S,9r)-9-methoxy-3-(2-(methylsulfonyl)ethyl)-3-azabicyclo[3.3.1]nonan-9-yl)benzamide hydrochloride] has an EC50 (human μ opioid receptor [1]) of over 75 nM and a Ki (μ-receptor) of 1 to 5 nM.

Compound `COC1(c2cccc(C(N)=O)c2)C2CCCC1CN(Cc1n[nH]c3ccccc13)C2` [Compound 154, 3-((1R,5S,9r)-3-((1H-indazol-3-yl)methyl)-9-methoxy-3-azabicyclo[3.3.1]nonan-9-yl)benzamide hydrochloride] has an EC50 (human μ opioid receptor [1]) of under 10 nM and a Ki (μ-receptor) of under 1 nM.

With `COC1(c2cccc(C(N)=O)c2)C2CCCC1CN(C[C@@H]1C[C@@H]3C[C@@H]3C1)C2` (stereo partly drawn) [Compound 156, 3-((1R,5S,9R)-3-((1R,3r,5S)-bicyclo[3.1.0]hexan-3-ylmethyl)-9-methoxy-3-azabicyclo[3.3.1]nonan-9-yl)benzamide hydrochloride] the EC50 (human μ opioid receptor [1]) was under 10 nM and the Ki (μ-receptor) was under 1 nM.

`COC1(c2cccc(C(N)=O)c2)C2CCCC1CN(CCC(F)F)C2` (centres unmarked) [Compound 159] gave an EC50 (human μ opioid receptor [1]) of under 10 nM and a Ki (μ-receptor) of under 1 nM.

With `COC1(c2ccnc(C(N)=O)c2)C2CCCC1CN(C[C@H]1C[C@H]3CC[C@@H](C1)O3)C2` (some centres unmarked) [Compound 164] the EC50 (human μ opioid receptor [2]) was 10 to 75 nM.

`COC1(c2ccnc(C(N)=O)c2)C2CCCC1CN(C[C@@H]1C[C@H]3CC[C@@H](C1)O3)C2` (some centres unmarked) [Compound 165] showed an EC50 (human μ opioid receptor [2]) of 10 to 75 nM.

In the case of `COC1(c2cccc(C(N)=O)c2)C2CCCC1CN(C[C@H]1C[C@H]3CC[C@@H](C1)O3)C2` (some centres unmarked) [Compound 166], the EC50 (human μ opioid receptor [2]) is reported as under 10 nM.

`COC1(c2cccc(C(N)=O)c2)C2CCCC1CN(C[C@@H]1C[C@H]3CC[C@@H](C1)O3)C2` (some centres unmarked) [Compound 167] showed an EC50 (human μ opioid receptor [2]) of under 10 nM.

`COC1(c2ccnc(C(N)=O)c2)C2CCCC1CN(C[C@H]1CCCCO1)C2` (some centres unmarked) [Compound 168] was tested, and the EC50 (human μ opioid receptor [2]) was 10 to 75 nM.
